Test results reported in paper PMC11492426, “Design, synthesis, and biological evaluation of novel quinoline-based EGFR/HER-2 dual-target inhibitors as potential anti-tumor agents” (RSC Advances, 2024).

Tests used:
[1] = Cell viability assay (MTT) on MCF-10A normal cells; format: cell-based; settings: human, MCF-10A mammary gland epithelial normal cells, MCF-10A cells, four-day incubation
Procedure: The impact of compounds 3a–h and 5a–d on cell viability was evaluated using the human mammary (MCF-10A) gland epithelium normal cell line. The MTT assay was used to evaluate the cell viability of 3a–h and 5a–d after a four-day incubation period on MCF-10A cells.[46] Refer to Appendix A for more details.
The effect of new compounds 3a–h and 5a–d on cell viability was evaluated using the MCF-10A (human mammary gland epithelium) normal cell line.
4.2. Biological evaluation
4.2.1 Cell Viability assay (MTT assay)
MTT assay was performed to investigate the effect of the synthesized compounds on mammary epithelial cells (MCF-10A). The cells were propagated in medium consisting of Ham's F-12 medium/ Dulbecco's modified Eagle's medium (DMEM) (1:1) supplemented with 10% foetal calf serum, 2 mM glutamine, insulin (10 μg/mL), hydrocortisone (500 ng/mL) and epidermal growth factor (20 ng/mL). Trypsin ethylenediamine tetra acetic acid (EDTA) was used to passage the cells after every 2-3 days. 96-well flat-bottomed cell culture plates were used to seed the cells at a density of 10^4 cells mL-1. The medium was aspirated from all the wells of culture plates after 24 h followed by the addition of synthesized compounds (in 200 μL medium to yield a final concentration of 0.1% (v/v) dimethyl sulfoxide) into individual wells of the plates. Four wells were designated to a single compound. The plates were allowed to incubate at 37°C for 96 h. Afterwards, the medium was aspirated and 3-[4,5-dimethylthiazol-2-yl]-2,5-diphenyltetrazolium bromide (MTT) (0.4 mg/mL) in medium was added to each well and subsequently incubated for 3 h. The medium was aspirated and 150 μL dimethyl sulfoxide (DMSO) was added to each well. The plates were vortexed followed by the measurement of absorbance at 540 nm on a microplate reader. The results were presented as inhibition (%) of proliferation in contrast to controls comprising 0.1% DMSO.

[2] = test system: A-549 lung cancer cell line; experiment: Antiproliferative assay, A-549; format: cell-based; settings: Homo sapiens, A549; A-549 lung cancer cells; read-out: Antiproliferative activity IC50 ± SEM, A-549
[3] = test system: MCF-7 breast cancer cell line; experiment: Antiproliferative assay, MCF-7; format: cell-based; settings: Homo sapiens, MCF7; MCF-7 breast cancer cells; read-out: Antiproliferative activity IC50 ± SEM, MCF-7
[4] = test system: Panc-1 pancreatic cancer cell line; experiment: Antiproliferative assay, Panc-1; format: cell-based; settings: Homo sapiens; Panc-1 pancreatic cancer cells; read-out: Antiproliferative activity IC50 ± SEM, Panc-1
[5] = test system: HT-29 colon cancer cell line; experiment: Antiproliferative assay, HT-29; format: cell-based; settings: Homo sapiens; HT-29 colon cancer cells; read-out: Antiproliferative activity IC50 ± SEM, HT-29
[6] = test system: four human cancer cell lines (A-549, MCF-7, Panc-1, HT-29); experiment: Antiproliferative assay, average over four cancer cell lines; format: cell-based; settings: Homo sapiens, average IC50 over the four cancer cell lines
[7] = test system: Caspase-3; experiment: Caspase-3 activation assay in MCF-7 cells; format: cell-based, human; settings: for Caspase-3 Conc.: treated at IC50 concentration; for Caspase-3 Fold change: versus untreated control
[8] = test system: Caspase-8; experiment: Caspase-8 activation assay in MCF-7 cells; format: cell-based, human; settings: for Caspase-8 Conc.: treated at IC50 concentration; for Caspase-8 Fold change: versus untreated control
[9] = test system: Bcl-2; experiment: Bcl-2 inhibition assay in MCF-7 cells; format: cell-based, human; settings: for Bcl-2 Conc.: treated at IC50 values
Procedure: Additionally, the treatment led to a notable reduction in anti-apoptotic Bcl-2 expression levels, with a fold decrease of roughly 6 for compound 3e and 8 for compound 5a. Compounds 3e and 5a markedly elevated the Bax/Bcl-2 ratio compared to the control untreated cells. […]
4.2.8. Bcl-2 inhibition assay
Mix all reagents thoroughly without foaming before use. Wash the microwells twice with approximately 300 μL Wash Buffer per well with thorough aspiration of microwell contents between washes. Take caution not to scratch the surface of the microwells. After the last wash, empty the wells and tap microwell strips on absorbent pad or paper towel to remove excess Wash Buffer. Use the microwell strips immediately after washing or place upside down on a wet absorbent paper for not […]
longer than 15 minutes. […] Add 100 μL of Sample Diluent in duplicate to all standard wells and to the blank wells. Prepare standard (1:2 dilution) in duplicate ranging from 32 ng/mL to 0.5 ng/mL. Add 100 μL of Sample Diluent, in duplicate, to the blank wells. Add 80 μL of Sample Diluent, in duplicate, to the sample wells. Add 20 μL of each Sample, in duplicate, to the designated wells. Add 50 μL of diluted biotin-conjugate to all wells, including the blank wells. Cover with a plate cover and incubate at room temperature, on a microplate shaker at 100 rpm if available, for 2 hours. Remove plate cover and empty the wells. Wash microwell strips 3 times as described in step 2. Add 100 μL of diluted Streptavidin-HRP to all wells, including the blank wells. Cover with a plate cover and incubate at room temperature, on a microplate shaker at 100 rpm if available, for 1 hour. Remove plate cover and empty the wells. Wash microwell strips 3 times as described in step 2.
Proceed to the next step. Pipette 100 μl of mixed TMB Substrate Solution to all wells, including the blanks. Incubate the microwell strips at room temperature (18° to 25°C) for about 15 minutes, if available on a rotator set at 100 rpm. Avoid direct exposure to intense light. The point, at which the substrate reaction is stopped, is often determined by the ELISA reader. Many ELISA readers record absorbance only up to 2.0 O.D. Therefore, the color development within individual microwells must be watched by the person running the assay and the substrate reaction stopped before positive wells are no longer properly detectable. Stop the enzyme reaction by quickly pipetting 100 μL of Stop Solution into each well, including the blank wells. It is important that the Stop Solution is spread quickly and uniformly throughout the microwells to completely inactivate the enzyme. Results must be read immediately after the Stop Solution is added or within one hour if the microwell strips are stored at 2 - 8°C in the dark. Read absorbance of each microwell on a spectrophotometer using 450 nm as the primary wavelength.
4.3. Statistical analysis
Computerized Prism 5 program was used to statistically analyzed data using one-way ANOVA test followed by Tukey’s as post ANOVA for multiple comparison at P ≤.05. Data were presented as […]

[10] = biological target: EGFR (Homo sapiens, UniProt P00533); experiment: EGFR inhibitory assay (EGFR-TK assay)
[11] = biological target: HER2 (Homo sapiens, UniProt P04626); experiment: HER2 inhibitory assay (ADP-Glo kinase assay)
HER2, sequence (P04626 676-1255 limits assumed): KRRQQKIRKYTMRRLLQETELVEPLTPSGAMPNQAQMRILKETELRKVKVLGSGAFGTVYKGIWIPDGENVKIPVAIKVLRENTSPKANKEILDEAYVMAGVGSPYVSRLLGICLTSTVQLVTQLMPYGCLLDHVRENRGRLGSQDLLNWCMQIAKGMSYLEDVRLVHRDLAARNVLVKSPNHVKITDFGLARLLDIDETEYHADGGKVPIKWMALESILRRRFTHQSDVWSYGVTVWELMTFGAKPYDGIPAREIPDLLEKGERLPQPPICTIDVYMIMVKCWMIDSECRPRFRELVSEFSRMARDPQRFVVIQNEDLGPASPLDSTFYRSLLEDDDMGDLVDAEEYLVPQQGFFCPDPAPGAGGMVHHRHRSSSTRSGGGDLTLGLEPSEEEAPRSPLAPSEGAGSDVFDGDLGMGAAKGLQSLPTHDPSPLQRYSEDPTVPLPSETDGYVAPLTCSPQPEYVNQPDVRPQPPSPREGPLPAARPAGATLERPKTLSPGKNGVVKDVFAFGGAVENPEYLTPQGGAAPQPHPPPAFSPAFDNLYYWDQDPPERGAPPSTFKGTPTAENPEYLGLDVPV

EGFR, sequence (P00533 669-1210): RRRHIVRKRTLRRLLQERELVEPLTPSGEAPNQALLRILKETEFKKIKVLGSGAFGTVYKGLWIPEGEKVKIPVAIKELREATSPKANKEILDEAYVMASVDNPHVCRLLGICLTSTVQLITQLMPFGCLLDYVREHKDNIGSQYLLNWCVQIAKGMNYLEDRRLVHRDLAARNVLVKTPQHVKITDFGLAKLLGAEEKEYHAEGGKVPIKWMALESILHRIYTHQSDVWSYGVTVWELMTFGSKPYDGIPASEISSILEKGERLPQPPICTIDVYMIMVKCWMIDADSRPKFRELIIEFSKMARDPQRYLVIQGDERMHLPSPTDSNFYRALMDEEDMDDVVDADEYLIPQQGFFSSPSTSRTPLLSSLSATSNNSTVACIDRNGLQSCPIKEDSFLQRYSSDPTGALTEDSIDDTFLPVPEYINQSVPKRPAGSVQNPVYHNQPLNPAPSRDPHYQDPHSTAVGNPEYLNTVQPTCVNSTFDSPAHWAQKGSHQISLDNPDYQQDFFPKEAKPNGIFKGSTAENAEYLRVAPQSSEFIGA

IC50 [2]	IC50 [3]	IC50 [4]	IC50 [5]	GI50 [6]	IC50 [10]	IC50 [11]	SMILES	viability at 96 h, 50 µM [1]	Caspase-3 Conc. [7]	Caspase-3 Fold change [7]	Caspase-8 Conc. [8]	Caspase-8 Fold change [8]	Bcl-2 Conc. [9]	Bcl-2 Fold reduction ([9]; versus untreated control)
32 ± 3 nM	31 ± 3 nM	34 ± 3 nM	34 ± 3 nM	33 nM	79 ± 5 nM	39 ± 2 nM	O=c1[nH]c2ccccc2c(O)c1/C=N/c1nc(-c2ccncc2)n[nH]1 [Compound 3e, (E)-4-hydroxy-3-(((3-(pyridin-4-yl)-1H-1,2,4-triazol-5-yl)imino)methyl)quinolin-2(1H)-one]	86%	587 ± 5 pg/mL	9	1.65 ± 0.20 ng/mL	19	0.84 ng/mL	–
25 ± 2 nM	23 ± 2 nM	26 ± 2 nM	26 ± 2 nM	25 nM	71 ± 4 nM	31 ± 2 nM	O=c1[nH]c2ccccc2c(O)c1C=Nc1ccc(NS(=O)(=O)c2ncccn2)cc1 [Compound 5a, N-(4-(((4-hydroxy-2-oxo-1,2-dihydroquinolin-3-yl)methylene)amino)phenyl) pyrimidine-2-sulfonamide]	87%	710 ± 6 pg/mL	11	1.70 ± 0.15 ng/mL	21	0.62 ng/mL	~8
